Measurements published in US20240299299A1, “COMPOSITIONS AND METHODS FOR INCREASING THE EFFICACY OF IMMUNOTHERAPIES AND VACCINES” (The Regents of the University of Michigan, priority 2021, published 2024).

Legend:
OT-I CD8+ T cells [1] = assay: Tcm differentiation of isolated OT-I CD8+ T cells activated with α-CD3/α-CD28 in the absence of dendritic cells; type: cell-based, mice; details: α-CD3/α-CD28 activation; 3-methylhistidine 3 mM, DHB 100 μM; day 7
Protocol: (§1) FIG. 2: a) OT-I CD8+ T cells were cultured with different metabolites in vitro as indicated, b,c) shown is the frequency of CD44^+CD62L^+ Tcm CD8+ T cells on day 8. d) OT-I CD8+ T cells were activated with α-CD3/α-CD28 antibodies in presence of metabolites as indicated and shown is the Tcm CD8+ T cells on day 7. Data represent the mean±s.e.m. (n=5).
(§2) Splenocytes from OT-I mice were obtained aseptically. The cells were cultured in 96-well plates (1×10^5 cells per well). For Tcm differentiation study, cells were activated with SIINFEKL peptide (4×10^−9M) in the presence of various metabolites (arginine: 3 mM; 3-methylhistidine: 3 mM; N-acetylneuraminate: 100 μM; disodium sebacate: 100 μM; DHB: 100 μM; pantothenate: 100 μM; γ-aminobutyric acid: 100 μM; glycerol: 100 μM; AICAR: 100 μM, sodium ferulate: 100 μM) for 3 days. Then cells were washed three times with T-cell medium and further cultured with IL-2 (10 ng ml^−1; PeproTech) in the presence of metabolites for 5 days. The cells were then washed twice and re-activated with SIINFEKL peptide (10 μM) for 2 h. The suspension cells were collected, blocked with CD16/32 antibody and stained with the fixable viability dye eFluor 450, FITC-CD44 rat anti-human/mouse and PE-CD62L monoclonal antibody. […] Tcf1^+CD8^+, CD44^+CD62L^+CD8^+ and survival (stained with Annexin V-APC and PI) T cells were detected via flow cytometry.

OT-I CD8+ T cells [2] = assay: CD8+ T cell survival upon IL-2 withdrawal (Annexin V/PI); type: cell-based, mice; details: dependent on the dose of metabolites
Protocol: FIG. 4: a) OT-I CD8+ T cells were cultured with different metabolites in vitro as indicated, b,c) shown are the level of survival CD8+ T cells (Annexin V^−PI^−) as well as the representative flow cytometry plots on day 5.5. Data represent the mean±s.e.m. (n=5).
as §2, with “antibody. To test if the central memory CD8+ T cells differentiation is dependent on dendritic cells, CD8 T cells isolated from the spleen in OT-I mice were incubated in the 96-well plate, which was precoated with anti-hamster IgG antibody. […] (1 μg mL^−1) and IL-2 (100 U mL^−1) were added into each well in the presence of 3-methylhistidine (3 mM), DHB (100 μM), or sodium ferulate (100 μM) for 2 days. Then cells were washed for three times to remove α-CD3/α-CD28 antibodies and further incubated with metabolites and IL-2 (10 ng ml^−1) for 5 days. Thereafter, cells were collected for central memory CD8^+ T cells analysis. For CD8^+ T cells survival study, cells were activated with antigen peptide as above, following with thoroughly washing, and incubation in presence of IL-2 for 2 days.” for “antibody.”

OT-I CD8+ T cells [3] = assay: Tcf1+CD8+ differentiation of OT-I T cells with metabolites; type: cell-based, mice; details: day 6
Protocol: FIG. 3: a) OT-I CD8+ T cells were cultured with different metabolites in vitro as indicated, b,c) shown are the frequency of the Tcf1^+CD8+ T cells and the representative flow cytometry plots on day 6. Data represent the mean±s.e.m. (n=5).
as §2, with “antibody. To test if the central memory CD8+ T cells differentiation is dependent on dendritic cells, CD8 T cells isolated from the spleen in OT-I mice were incubated in the 96-well plate, which was precoated with anti-hamster IgG antibody. […] (1 μg mL^−1) and IL-2 (100 U mL^−1) were added into each well in the presence of 3-methylhistidine (3 mM), DHB (100 μM), or sodium ferulate (100 μM) for 2 days. Then cells were washed for three times to remove α-CD3/α-CD28 antibodies and further incubated with metabolites and IL-2 (10 ng ml^−1) for 5 days. Thereafter, cells were collected for central memory CD8^+ T cells analysis. For CD8^+ T cells survival study, cells were activated with antigen peptide as above, following with thoroughly washing, and incubation in presence of IL-2 for 2 days.” for “antibody.”

[4] = tested on: CT26 colon carcinoma cells; assay: CT26 tumor model, orally administered metabolites plus α-PD-1; type: in vivo, BALB/c mice; details: oral gavage 3 times every 4 days (DHB 2.4 mg, 3-methylhistidine 3 mg per mouse) plus α-PD-1 i.p.
Protocol: FIG. 6: a) Therapeutic treatment regimen. BALB/c mice were s.c. inoculated with 1.5×10^5 CT26 colon carcinoma cells. The candidate agents were orally administrated 3 times every 4 days, 100 μg α-PD-1 was injected i.p. on days 10, 14, 18 and 22. b) Average tumor growth, c) individual tumor growth. Data represent the mean±s.e.m. (n=4-5).
Animals were cared for following the federal, state and local guidelines. All work conducted on animals was in accordance with and approved by the Institutional Animal Care and Use Committee (IACUC). Female (6-8 weeks old) BALB/c mice from Jackson Laboratory were inoculated with 1.5×10^5 CT26 cells per mouse on the right flank by s.c. injection. Tumor-bearing mice were randomly assigned to different treatment groups. For intratumoral injection study, the mice were injected with 3-methylhistidine (dose: 1 mg per mouse), sodium hippurate (dose: 1 mg per mouse), disodium sebacate (dose: 1 mg per mouse), sodium ferulate (dose: 1 mg per mouse), or DHB (dose: 0.5 mg per mouse) in 40 μL PBS buffer for every other day. The mice were i.p. injected with α-PD-1 antibody (100 μg per dose; clone RMP1-14, Bioxcell) on days 9, 12, 16 and 20 post tumor inoculation. […] The tumor size was measured, and the tumor volume was calculated as ½×(length×width^2). […]

OT-I CD8+ T cells [5] = assay: In vitro central memory (Tcm) differentiation of OT-I CD8+ T cells activated with SIINFEKL peptide and IL-2 with metabolites; type: cell-based, mice; details: day 8; metabolite-supplemented medium (arginine 3 mM, 3-methylhistidine 3 mM, DHB 100 μM, sodium ferulate 100 μM)
Protocol: as §1
Splenocytes from OT-I mice were obtained aseptically. The cells were cultured in 96-well plates (1×10^5 cells per well). For Tcm differentiation study, cells were activated with SIINFEKL peptide (4×10^−9M) in the presence of various metabolites (arginine: 3 mM; 3-methylhistidine: 3 mM; N-acetylneuraminate: 100 μM; disodium sebacate: 100 μM; DHB: 100 μM; pantothenate: 100 μM; γ-aminobutyric acid: 100 μM; glycerol: 100 μM; AICAR: 100 μM, sodium ferulate: 100 μM) for 3 days. Then cells were washed three times with T-cell medium and further cultured with IL-2 (10 ng ml^−1; PeproTech) in the presence of metabolites for 5 days. The cells were then washed twice and re-activated with SIINFEKL peptide (10 μM) for 2 h. The suspension cells were collected, blocked with CD16/32 antibody and stained with the fixable viability dye eFluor 450, FITC-CD44 rat anti-human/mouse and PE-CD62L monoclonal antibody. To test if the central memory CD8+ T cells differentiation is dependent on dendritic cells, CD8 T cells isolated from the spleen in OT-I mice were incubated in the 96-well plate, which was precoated with anti-hamster IgG antibody. […] (1 μg mL^−1) and IL-2 (100 U mL^−1) were added into each well in the presence of 3-methylhistidine (3 mM), DHB (100 μM), or sodium ferulate (100 μM) for 2 days. Then cells were washed for three times to remove α-CD3/α-CD28 antibodies and further incubated with metabolites and IL-2 (10 ng ml^−1) for 5 days. Thereafter, cells were collected for central memory CD8^+ T cells analysis. For CD8^+ T cells survival study, cells were activated with antigen peptide as above, following with thoroughly washing, and incubation in presence of IL-2 for 2 days. Metabolites were added during this incubation (arginine: 3 mM, 1 mM; 3-methylhistidine: 3 mM, 1 mM, 500 μM, 100 μM; N-acetylneuraminate: 100 μM; disodium sebacate: 100 μM; DHB: 100 μM, 50 μM, 20 μM; pantothenate: 100 μM; γ-aminobutyric acid: 100 μM; glycerol: 100 μM; AICAR: 100 μM). Then cells were further incubated in absence of both IL-2 and metabolites for 36 h to induce the apoptosis/dead. For Tcf1^+CD8^+ differentiation study, cells were activated with antigen peptide as above, followed by thoroughly washing, and incubation with metabolites in presence of IL-2 for 3 days. […] Tcf1^+CD8^+, CD44^+CD62L^+CD8^+ and survival (stained with Annexin V-APC and PI) T cells were detected via flow cytometry.

[6] = tested on: CT26 colon carcinoma cells; assay: CT26 tumor model, metabolite monotherapy i.p. without α-PD-1; type: in vivo, BALB/c mice; details: monotherapy without α-PD-1 IgG; i.p. DHB 2.4 mg or 3-methylhistidine 3 mg per dose
Protocol: FIG. 7: a-d) In vitro cell viability of DHB at various concentrations in activated T cells, MC38, B16F10, and CT26 tumor cells. e) BALB/c mice were s.c. inoculated with 1.5×10^5 CT26 colon carcinoma cells. DHB (2.4 mg per dose) or 3-methylhistidine (3 mg per dose) was i.p. injected 3 times every 4 days, 100 μg α-PD-1 was i.p. injected on days 11, 15, and 20. Shown is the average tumor growth. Data represent the mean±s.e.m. (n=4-5).

[7] = tested on: CT26 colon carcinoma cells; assay: CT26 tumor model, intratumoral metabolites plus α-PD-1; type: in vivo, BALB/c mice
Protocol: FIG. 5: a) Therapeutic treatment regimen. BALB/c mice were s.c. inoculated with 1.5×10^5 CT26 colon carcinoma cells. The candidate metabolites were injected intratumorally every other day, 100 μg α-PD-1 was i.p. injected on days 9, 12, 16 and 20. b) Average tumor growth, c) individual tumor growth, and d) overall Kaplan-Meier survival are shown. Data represent the mean±s.e.m. (n=5).
Animals were cared for following the federal, state and local guidelines. All work conducted on animals was in accordance with and approved by the Institutional Animal Care and Use Committee (IACUC). Female (6-8 weeks old) BALB/c mice from Jackson Laboratory were inoculated with 1.5×10^5 CT26 cells per mouse on the right flank by s.c. injection. Tumor-bearing mice were randomly assigned to different treatment groups. For intratumoral injection study, the mice were injected with 3-methylhistidine (dose: 1 mg per mouse), sodium hippurate (dose: 1 mg per mouse), disodium sebacate (dose: 1 mg per mouse), sodium ferulate (dose: 1 mg per mouse), or DHB (dose: 0.5 mg per mouse) in 40 μL PBS buffer for every other day. The mice were i.p. injected with α-PD-1 antibody (100 μg per dose; clone RMP1-14, Bioxcell) on days 9, 12, 16 and 20 post tumor inoculation. For oral administration study, the mice were injected with 3-methylhistidine (dose: 3 mg per mouse), sodium hippurate (dose: 3 mg per mouse), disodium sebacate (dose: 3 mg per mouse), sodium ferulate (dose: 3 mg per mouse), or DHB (dose: 2.4 mg per mouse) in PBS buffer for 3 times every 4 days. α-PD-1 was injected on days 10, 14, 18 and 22. The tumor size was measured, and the tumor volume was calculated as ½×(length×width^2). Tumor-bearing mice were euthanized when the tumor size reached 1.5 cm in any diameter or when the animals became moribund with severe weight loss (>20%) or tumor ulceration.

cancer cells = details: reported in literature (Eroglu et al.); cited from earlier work

| Structure (SMILES) | induction of central memory CD8+ T cells in the absence of dendritic cells (OT-I CD8+ T cells [1]) | survival of activated CD8+ T cells (OT-I CD8+ T cells [2]) | frequency of Tcf1+CD8+ T cells (OT-I CD8+ T cells [3]) | efficacy of α-PD-1 treatment [4] | differentiation of CD44+CD62L+ central memory CD8+ T cells (OT-I CD8+ T cells [5]) | tumor growth in vivo [6] | systemic antitumor efficacy of α-PD-1 treatment and CT26 tumor growth ([7]; intratumoral every other day (DHB 0.5 mg, 3-methylhistidine 1 mg per mouse) plus α-PD-1 i.p.) | tumor-free mice on day 70 ([7]; intratumoral metabolite plus α-PD-1 i.p.) [%] | apoptosis in cancer cells (cancer cells) |
| --- | --- | --- | --- | --- | --- | --- | --- | --- | --- |
| Cn1cncc1C[C@H](N)C(=O)O [3-methylhistidine] | can also induce central memory CD8^+ T cells | significantly increased the survival | increased the frequency | improved the efficacy of α-PD-1 treatment | significantly increased the differentiation | did not inhibit the tumor growth | improved the systemic antitumor efficacy of α-PD-1 treatment and slowed down the CT26 tumors growth | 80 | – |
| COc1cc(/C=C/C(=O)O)ccc1O [Ferulic acid] | – | – | – | – | – | – | – | – | can induce apoptosis |
